Results published in US20230382926A1, “COMPOUNDS AND USES THEREOF” (The University of The West Indies, priority 2022, published 2023).

Assays:
[1] = test system: clinical isolate CR-K. pneumoniae 7225; assay: Non-lethal mouse peritonitis infection model; type: in vivo, Swiss albino mice; conditions: monotherapy at 10 mg kg^−1; preliminary dosing experiments
Protocol: For both lethal and non-lethal infection models involving Carbapenem resistant Klebsiella pneumoniae suitable strains, number of mice per treatment and bacterial infection dose were predetermined in preliminary experiments.
Each mouse (n=6 per group) received an intraperitoneal (i.p.) injection of 200 μl of bacterial suspension (1×10^4 CFU ml^−1).
Mice were then treated once daily for two subsequent days (i.e. 24 h and 48 h). Twenty-four-hours after the last dose, the mice were euthanized via cervical dislocation and their spleen and liver excised, homogenized in PBS and plated onto Hichrome™ Klebsiella selective media (HiMedia Laboratories, PA, USA). The plates were incubated at 35° C. for 24 h and bacterial counts were determined (CFU g^−1 organ).
Based on the significance of the SP-azaBIMs to restore the in vitro efficacy of antibiotics against high priority pathogenic bacteria, we examined if these compounds could provide proof of concept that they could be used to treat in vivo infections. To test this, we performed both non-lethal and lethal intraperitoneal infection models in Swiss Albino mice.
There was a significant reduction in the K. pneumoniae load in both the liver (FIG. 2a) and spleen (FIG. 2b) for the combination therapies compared to the respective antibiotic monotherapies. […] Colistin (Col) (10 mg kg^−1) was used as the positive control in this case. K. pneumoniae load in the liver (FIG. 2a) and spleen (FIG. 2b) was determined by selective plating on Hichrome™ Klebsiella selective media. Data bars represent the average (n=6 mice per treatment group)±standard error.

[2] = test system: Klebsiella pneumoniae ATCC BAA-2814; assay: Gene expression analysis by quantitative reverse transcription PCR; type: cell-based; conditions: for ROB gene expression compared to untreated cells / soxS gene expression compared to untreated cells: Meropenem only 0.25 MIC (8 μg mL^−1)
Protocol: Cell treatment and RNA extraction: Overnight cultures of Klebsiella pneumoniae ATCC BAA-2814 grown on Brain Heart Infusion (BHI) agar was harvested and washed in phosphate buffer saline (pH=7.4) twice. Fresh Brain Heart infusion broth was inoculated with K. pneumoniae cells to a final concentration of 10^6 CFU mL^−1. Cells were subjected to the following treatments: T0—Vehicle only (ddH2O); T1—Meropenem only (0.25 MIC; 8 μg mL^−1); T2—Meropenem 0.25 MIC+SP-azaBIM 136 (2 ug mL^−1). Treated cells were incubated at 35° C. at 200 rpm and total RNA was extracted at 1 h and 6 h post exposure using TRIzol reagent (Life Technologies) following the manufacturer's protocol before eluting in DEPC treated water. Three biological replicates were included for each treatment.
Quantitative reverse transcription PCR analysis: Reverse transcription was done using the GoScript Reverse Transcriptase Kit (Promega, USA) employing a mixture (1:1) of random and oligo dT primers with 2 μg RNA as starting material in a 20-μL reaction following the manufacturers protocols. cDNA samples were then quantified by real-time PCR using specific primers in an Applied Biosystems 7500 Fast Real-Time PCR system (Life Technologies Corp., USA) and the data analysed using the 2^(−ΔΔct) method. Thermal cycling was performed using a two-step PCR amplification standard procedure at 95° C. for 30 s and 35 cycles of 95° C. for 5 s and 60° C. for 30 s. The expression levels of all the genes were normalized using the K. pneumoniae RNA polymerase sigma factor (rpoD) gene as an internal standard.
To examine this hypothesis, we investigated the expression of genes in K. pneumoniae ATCC […] that were affected by SP-azaBIM 136 treatment. Expression of key transcription factors and their associated downstream resistance and pathogenicity genes was examined in Klebsiella pneumoniae cells treated with meropenem and a combination of meropenem and SP-azaBIM 136. Cells in the exponential phase were either treated with 0.25 MIC (8 μg mL^−1) of Meropenem only or a combination of 0.25 MIC meropenem and 10 μg mL^−1 of SP-azaBIM 136. Untreated cells served as the control for baseline gene expression. Cells were exposed to each agent for 1 h and 6 h, after which the total RNA was extracted, and cDNA synthesis performed. […] The addition of SP-azaBIM 136 was theorized to revert the expression of the relevant genes closer to baseline expression levels.

P. aeruginosa = assay: Rescue concentration of substituted phenyl azaindole derivatives; type: cell-based; conditions: Imipenem fixed at 1 μg/mL
Summary of the method: (§1)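 Modified checkerboard MIC: fixed CLSI susceptible-breakpoint antibiotic concentration plus twofold dilution series of SP-azaBIM, 10^6 CFU/ml in ca-MHB, 35° C, 24 h aerobic. Only antibiotics to which the strain was resistant were tested. Rescue concentration = lowest compound concentration giving 99.99% growth reduction (visual) at breakpoint.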

[3] = test system: Carbapenem resistant Klebsiella pneumoniae; assay: Broth microdilution minimum inhibitory concentration; type: cell-based; conditions: compound alone
Summary of the method: (§2)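 Broth microdilution followed CLSI M07-A10, using 11 two-fold dilutions (top 1028 μg/mL, 2% DMSO final) and an inoculum of 2×10^5 to 8×10^5 CFU/mL. Wells were scored visually. MIC is the lowest concentration with no growth, tested in duplicate.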

[4] = test system: Methicillin resistant Staphylococcus aureus; assay: as above; type: cell-based; conditions: compound alone
Summary of the method: as §2

[5] = test system: Vancomycin resistant Enterococcus faecalis; assay: as above; type: cell-based; conditions: compound alone
Summary of the method: as §2

[6] = test system: Carbapenem resistant Acinetobacter baumannii; assay: as above; type: cell-based; conditions: compound alone
Summary of the method: as §2

[7] = test system: Multidrug resistant Pseudomonas aeruginosa; assay: as above; type: cell-based; conditions: compound alone
Summary of the method: as §2

MRSA = assay: Rescue concentration of substituted phenyl azaindole derivatives; type: cell-based, Staphylococcus aureus; conditions: Amoxicillin fixed at 2 μg/mL
Summary of the method: as §1

K. pneumoniae = assay: as above; type: cell-based; conditions: for Rescue concentration, K. pneumoniae Ciprofloxacin (1 μg/mL): Ciprofloxacin fixed at 1 μg/mL; for Rescue concentration, K. pneumoniae Imipenem (1 μg/mL): Imipenem fixed at 1 μg/mL
Summary of the method: as §1

SMILES	Efficacy of antibiotic monotherapy against K. pneumoniae 7225 [1]	mexA efflux pump gene expression above untreated cells (peak) ([2]; Meropenem only) [folds]	norB efflux pump gene expression above untreated cells (peak) ([2]; Meropenem only) [folds]	ROB gene expression compared to untreated cells ([2]; 1 h)	ROB gene expression compared to untreated cells ([2]; 6 h) [folds]	soxS gene expression compared to untreated cells ([2]; 6 h) [folds]	soxS gene expression compared to untreated cells ([2]; initial (1 h)) [folds]	Rescue concentration, P. aeruginosa Imipenem (1 μg/mL) (P. aeruginosa) [µg/mL]	MIC [3] [µg/mL]	MIC [4] [µg/mL]	MIC [5] [µg/mL]	MIC [6] [µg/mL]	MIC [7] [µg/mL]	Rescue concentration, MRSA Amoxicillin (2 μg/mL) (MRSA) [µg/mL]	Rescue concentration, K. pneumoniae Ciprofloxacin (1 μg/mL) (K. pneumoniae) [µg/mL]	Rescue concentration, K. pneumoniae Imipenem (1 μg/mL) (K. pneumoniae) [µg/mL]
C[C@@H](O)[C@H]1C(=O)N2C(C(=O)O)=C(S[C@@H]3CN[C@H](C(=O)N(C)C)C3)[C@H](C)[C@H]12 [Meropenem, reference compound]	ineffective	8.7	2.2	approximately 3 folds	12	18	3									
O=[N+]([O-])c1ccc(C(O)c2c[nH]c3ncc(Cl)cc23)cc1 (stereo not shown) [4NO2-5Cl-7aza-OH, (5-chloro-1H-pyrrolo[2,3-b]pyridin-3-yl)(4-nitrophenyl)methanol]								<256	< 1020	< 1020	< 1020	< 1020	< 1020	32	<256	<256
OC(c1ccc(Br)cc1)c1c[nH]c2ncc(Cl)cc12 (stereo not shown) [4Br-5Cl-7aza-OH, (4-bromophenyl)(5-chloro-1H-pyrrolo[2,3-b]pyridin-3-yl)methanol]								256	< 1020	< 1020	< 1020	< 1020	< 1020	8	32	32
